From patent US8530493B2, “Indolopyridines as Eg5 kinesin modulators” (4SC AG, priority 2006, dated 2013)

test system: RKO p21 uninduced (proliferating) colon adenocarcinoma cells; test: Alamar Blue cell viability assay, RKO p21 uninduced (proliferating); assay type: cell-based; conditions: Homo sapiens, Table B3, anti-proliferative/cytotoxic activity, 72 hours, read-out: −log EC50 RKO p21 uninduced (proliferating) (converted)
Summary of the method: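 RKO p21 or p27 subclones grown without Ponasterone A, i.e. proliferating, exposed 24 h after seeding to semi-log compound dilutions in DMEM/10% FCS (1% DMSO controls) for 72 h at 37° C. Alamar Blue fluorescence (544/590 nm) read relative to untreated cells; EC50 from dose-response curves, given as −log EC50 (mol/l).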

`C[C@@]12Cc3c([nH]c4cc(F)c(Cl)cc34)[C@@H](c3cccc(O)c3)N1C(=O)N(CCNCC1CC1)C2=O` (racemic) [Example 341, (3aSR,10RS)-6-Chloro-2-[2-(cyclopropylmethyl-amino)-ethyl]-7-fluoro-10-(3-hydroxy-phenyl)-3a-methyl-3a,4,9,10-tetrahydro-2,9,10a-triaza-cyclopenta[b]fluorene-1,3-dione] and `C[C@@]12Cc3c([nH]c4cc(F)c(Cl)cc34)[C@@H](c3cccc(O)c3)N1C(=O)N(CCNCCO)C2=O` (racemic) [Example 342, (3aSR,10RS)-6-Chloro-7-fluoro-2-[2-(2-hydroxy-ethylamino)-ethyl]-10-(3-hydroxy-phenyl)-3a-methyl-3a,4,9,10-tetrahydro-2,9,10a-triaza-cyclopenta[b]fluorene-1,3-dione] cannot be ordered by EC50: ≤ 39.8 nM for the first, ≤ 39.8 nM for the second.

`COCCNCCN1C(=O)N2[C@H](c3cccc(O)c3)c3[nH]c4cc(F)c(Cl)cc4c3C[C@@]2(C)C1=O` (racemic) [Example 343, (3aSR,10RS)-6-Chloro-7-fluoro-10-(3-hydroxy-phenyl)-2-[2-(2-methoxy-ethylamino)-ethyl]-3a-methyl-3a,4,9,10-tetrahydro-2,9,10a-triaza-cyclopenta[b]fluorene-1,3-dione] and `C=CCNCCN1C(=O)N2[C@H](c3cccc(O)c3)c3[nH]c4cc(F)c(Cl)cc4c3C[C@@]2(C)C1=O` (racemic) [Example 346, (3aSR,10RS)-2-(2-Allylamino-ethyl)-6-chloro-7-fluoro-10-(3-hydroxy-phenyl)-3a-methyl-3a,4,9,10-tetrahydro-2,9,10a-triaza-cyclopenta[b]fluorene-1,3-dione] cannot be ordered by EC50: ≤ 39.8 nM for the first, ≤ 39.8 nM for the second.

`C[C@@]12Cc3c([nH]c4cc(F)c(Cl)cc34)[C@@H](c3cccc(O)c3)N1C(=O)N(CCNC1CCC1)C2=O` (racemic) [Example 344, (3aSR,10RS)-6-Chloro-2-(2-cyclobutylamino-ethyl)-7-fluoro-10-(3-hydroxy-phenyl)-3a-methyl-3a,4,9,10-tetrahydro-2,9,10a-triaza-cyclopenta[b]fluorene-1,3-dione] and `CC(C)(C)NCCN1C(=O)N2[C@H](c3cccc(O)c3)c3[nH]c4cc(F)c(Cl)cc4c3C[C@@]2(C)C1=O` (racemic) [Example 345, (3aSR,10RS)-2-(2-tert-Butylamino-ethyl)-6-chloro-7-fluoro-10-(3-hydroxy-phenyl)-3a-methyl-3a,4,9,10-tetrahydro-2,9,10a-triaza-cyclopenta[b]fluorene-1,3-dione] cannot be ordered by EC50: ≤ 39.8 nM for the first, ≤ 39.8 nM for the second.

`CCN(C)CCN1C(=O)N2[C@H](c3cccc(O)c3)c3[nH]c4cc(F)c(Cl)cc4c3C[C@@]2(C)C1=O` (racemic) [Example 347, (3aSR,10RS)-6-Chloro-2-[2-(ethyl-methyl-amino)-ethyl]-7-fluoro-10-(3-hydroxy-phenyl)-3a-methyl-3a,4,9,10-tetrahydro-2,9,10a-triaza-cyclopenta[b]fluorene-1,3-dione] and `CN(CCO)CCN1C(=O)N2[C@H](c3cccc(O)c3)c3[nH]c4cc(F)c(Cl)cc4c3C[C@@]2(C)C1=O` (racemic) [Example 348, (3aSR,10RS)-6-Chloro-7-fluoro-2-{2-[(2-hydroxy-ethyl)-methyl-amino]-ethyl}-10-(3-hydroxy-phenyl)-3a-methyl-3a,4,9,10-tetrahydro-2,9,10a-triaza-cyclopenta[b]fluorene-1,3-dione] cannot be ordered by EC50: ≤ 39.8 nM for the first, 39.8 to 251 nM for the second.

`CCN(CCO)CCN1C(=O)N2[C@H](c3cccc(O)c3)c3[nH]c4cc(F)c(Cl)cc4c3C[C@@]2(C)C1=O` (racemic) [Example 349, (3aSR,10RS)-6-Chloro-2-{2-[ethyl-(2-hydroxy-ethyl)-amino]-ethyl}-7-fluoro-10-(3-hydroxy-phenyl)-3a-methyl-3a,4,9,10-tetrahydro-2,9,10a-triaza-cyclopenta[b]fluorene-1,3-dione] and `CCN(CCOC)CCN1C(=O)N2[C@H](c3cccc(O)c3)c3[nH]c4cc(F)c(Cl)cc4c3C[C@@]2(C)C1=O` (racemic) [Example 350, (3aSR,10RS)-6-Chloro-2-{2-[ethyl-(2-methoxy-ethyl)-amino]-ethyl}-7-fluoro-10-(3-hydroxy-phenyl)-3a-methyl-3a,4,9,10-tetrahydro-2,9,10a-triaza-cyclopenta[b]fluorene-1,3-dione] fall in the same range of EC50: 39.8 to 251 nM for the first, 39.8 to 251 nM for the second.

`CC(C)N(C)CCN1C(=O)N2[C@H](c3cccc(O)c3)c3[nH]c4cc(F)c(Cl)cc4c3C[C@@]2(C)C1=O` (racemic) [Example 352, (3aSR,10RS)-6-Chloro-7-fluoro-10-(3-hydroxy-phenyl)-2-[2-(isopropyl-methyl-amino)-ethyl]-3a-methyl-3a,4,9,10-tetrahydro-2,9,10a-triaza-cyclopenta[b]fluorene-1,3-dione] and `C=CCN(C)CCN1C(=O)N2[C@H](c3cccc(O)c3)c3[nH]c4cc(F)c(Cl)cc4c3C[C@@]2(C)C1=O` (racemic) [Example 362, (3aSR,10RS)-2-[2-(Allyl-methyl-amino)-ethyl]-6-chloro-7-fluoro-10-(3-hydroxy-phenyl)-3a-methyl-3a,4,9,10-tetrahydro-2,9,10a-triaza-cyclopenta[b]fluorene-1,3-dione] cannot be ordered by EC50: ≤ 39.8 nM for the first, 39.8 to 251 nM for the second.

`C[C@@]12Cc3c([nH]c4cc(F)c(Cl)cc34)[C@@H](c3cccc(O)c3)N1C(=O)N(CCN1CCOCC1)C2=O` (racemic) [Example 353, (3aSR,10RS)-6-Chloro-7-fluoro-10-(3-hydroxy-phenyl)-3a-methyl-2-(2-morpholin-4-yl-ethyl)-3a,4,9,10-tetrahydro-2,9,10a-triaza-cyclopenta[b]fluorene-1,3-dione] and `C[C@@]12Cc3c([nH]c4cc(F)c(Cl)cc34)[C@@H](c3cccc(O)c3)N1C(=O)N(CCN1CCCC1)C2=O` (racemic) [Example 354, (3aSR,10RS)-6-Chloro-7-fluoro-10-(3-hydroxy-phenyl)-3a-methyl-2-(2-pyrrolidin-1-yl-ethyl)-3a,4,9,10-tetrahydro-2,9,10a-triaza-cyclopenta[b]fluorene-1,3-dione] cannot be ordered by EC50: 39.8 to 251 nM for the first, ≤ 39.8 nM for the second.

`C[C@@]12Cc3c([nH]c4cc(F)c(Cl)cc34)[C@@H](c3cccc(O)c3)N1C(=O)N(CCN1CC=CC1)C2=O` (racemic) [Example 355, (3aSR,10RS)-6-Chloro-2-[2-(2,5-dihydro-pyrrol-1-yl)-ethyl]-7-fluoro-10-(3-hydroxy-phenyl)-3a-methyl-3a,4,9,10-tetrahydro-2,9,10a-triaza-cyclopenta[b]fluorene-1,3-dione] and `C[C@@]12Cc3c([nH]c4cc(F)c(Cl)cc34)[C@@H](c3cccc(O)c3)N1C(=O)N(CCN1CCCCC1)C2=O` (racemic) [Example 356, (3aSR,10RS)-6-Chloro-7-fluoro-10-(3-hydroxy-phenyl)-3a-methyl-2-(2-piperidin-1-yl-ethyl)-3a,4,9,10-tetrahydro-2,9,10a-triaza-cyclopenta[b]fluorene-1,3-dione] fall in the same range of EC50: 39.8 to 251 nM for the first, 39.8 to 251 nM for the second.

`CC1CCN(CCN2C(=O)N3[C@H](c4cccc(O)c4)c4[nH]c5cc(F)c(Cl)cc5c4C[C@@]3(C)C2=O)CC1` (racemic) [Example 357, (3aSR,10RS)-6-Chloro-7-fluoro-10-(3-hydroxy-phenyl)-3a-methyl-2-[2-(4-methyl-piperidin-1-yl)-ethyl]-3a,4,9,10-tetrahydro-2,9,10a-triaza-cyclopenta[b]fluorene-1,3-dione] and `CN1CCN(CCN2C(=O)N3[C@H](c4cccc(O)c4)c4[nH]c5cc(F)c(Cl)cc5c4C[C@@]3(C)C2=O)CC1` (racemic) [Example 359, (3aSR,10RS)-6-Chloro-7-fluoro-10-(3-hydroxy-phenyl)-3a-methyl-2-[2-(4-methyl-piperazin-1-yl)-ethyl]-3a,4,9,10-tetrahydro-2,9,10a--triaza-cyclopenta[b]fluorene-1,3-dione] fall in the same range of EC50: 39.8 to 251 nM for the first, 39.8 to 251 nM for the second.

`CC(=O)N1CCN(CCN2C(=O)N3[C@H](c4cccc(O)c4)c4[nH]c5cc(F)c(Cl)cc5c4C[C@@]3(C)C2=O)CC1` (racemic) [Example 360, (3aSR,10RS)-2-[2-(4-Acetyl-piperazin-1-yl)-ethyl]-6-chloro-7-fluoro-10-(3-hydroxy-phenyl)-3a-methyl-3a,4,9,10-tetrahydro-2,9,10a-triaza-cyclopenta[b]fluorene-1,3-dione] and `C[C@@]12Cc3c([nH]c4cc(F)c(Cl)cc34)[C@@H](c3cccc(O)c3)N1C(=O)N(CCN1CCCCCC1)C2=O` (racemic) [Example 361, (3aSR,10RS)-2-(2-Azepan-1-yl-ethyl)-6-chloro-7-fluoro-10-(3-hydroxy-phenyl)-3a-methyl-3a,4,9,10-tetrahydro-2,9,10a-triaza-cyclopenta[b]fluorene-1,3-dione] fall in the same range of EC50: 39.8 to 251 nM for the first, 39.8 to 251 nM for the second.

`C[C@@]12Cc3c([nH]c4ccc(Br)cc34)[C@@H](c3cccc(O)c3)N1C(=O)N(CCCNC1CCC1)C2=O` (racemic) [Example 369, (3aSR,10RS)-6-Bromo-2-(3-cyclobutylamino-propyl)-10-(3-hydroxy-phenyl)-3a-methyl-3a,4,9,10-tetrahydro-2,9,10a-triaza-cyclopenta[b]fluorene-1,3-dione] and `CN(CCO)CCCN1C(=O)N2[C@H](c3cccc(O)c3)c3[nH]c4ccc(Br)cc4c3C[C@@]2(C)C1=O` (racemic) [Example 370, (3aSR,10RS)-6-Bromo-2-{3-[(2-hydroxy-ethyl)-methyl-amino]-propyl}-10-(3-hydroxy-phenyl)-3a-methyl-3a,4,9,10-tetrahydro-2,9,10a-triaza-cyclopenta[b]fluorene-1,3-dione] cannot be ordered by EC50: ≤ 39.8 nM for the first, ≤ 39.8 nM for the second.

`C=CCN(C)CCCN1C(=O)N2[C@H](c3cccc(O)c3)c3[nH]c4ccc(Br)cc4c3C[C@@]2(C)C1=O` (racemic) [Example 371, (3aSR,10RS)-2-[3-(Allyl-methyl-amino)-propyl]-6-bromo-10-(3-hydroxy-phenyl)-3a-methyl-3a,4,9,10-tetrahydro-2,9,10a-triaza-cyclopenta[b]fluorene-1,3-dione] was tested, and the EC50 was ≤ 39.8 nM.
